Measured values: US20240216352A1 (priority 2022, published 2024)
Several values for one entry are separate records, joined by “and”; a condition that tells them apart may be missing. Identical values can stand only once.

System: participants with PPF
Assay: Phase 2 study, PPF cohort: safety and blood pressure
Format: in vivo, human
Settings: for Treatment discontinuations: 26-week treatment phase; for Nadir postdose reduction from baseline in mean seated systolic blood pressure: day 1
Experimental: A total of 123 participants with PPF were randomized. Participants (age ≥21 years) were randomized (1:1:1) to receive 30 mg or 60 mg Compound A or PBO twice daily for 26 weeks. […] Immunosuppressive medications (mycophenolate mofetil, mycophenolic acid, azathioprine and/or tacrolimus) were permitted only if dosing is stable for ≥6 months prior to screening. If receiving antifibrotic agents pirfenidone or nintedanib, patients had to receive a stable dosage for ≥3 months prior to screening and during the screening period; if not receiving pirfenidone or nintedanib, patients had to be naive to both drugs or not have received either 4 weeks prior to Day 1. A total of 47 (38.2%) subjects were receiving antifibrotic treatment (with or without immunosuppression therapy). Of those subjects, 34 were being treated with nintedanib and 13 with pirfenidone. Participants were stratified by usual interstitial pneumonia (UIP) pattern (presence versus absence) and background therapy (antifibrotics+/−ILD-targeted immunosuppression versus ILD-targeted immunosuppression alone versus none). UIP pattern was present in 52% of subjects and unclassifiable ILD was the most common disease categorization.
Patient is experiencing any of the following, confirmed by retest within 15 minutes: • Seated systolic blood pressure <85 mmHg • Seated diastolic blood pressure <55 mmHg • Orthostatic hypotension
Patient is experiencing symptoms that, in the investigator's opinion, could be associated with a reduction in blood pressure and is also experiencing at least one of the following, confirmed by retest within 15 minutes: • Seated systolic blood pressure <100 mmHg or seated diastolic blood pressure <60 mmHg • Decrease of seated systolic blood pressure of ≥20 mmHg from the previous visit or decrease of seated diastolic blood pressure of ≥10 mmHg from the previous visit • Orthostatic hypotension • Orthostatic tachycardia

Question: With `CCCN(C)C(=O)OCc1c(-c2ccc(O[C@H]3CCC[C@H](C(=O)O)C3)c(C)n2)nnn1C` [Compound A, (1S,3S)-3-((2-methyl-6-(1-methyl-5-(((methyl(propyl)carbamoyl)-oxy)methyl)-1H-1,2,3-triazol-4-yl)pyridin-3-yl)oxy)cyclohexane-1-carboxylic acid] as the compound, how does the Hepatobiliary toxicity (PPF cohort) read?
Answer: No hepatobiliary toxicity

Question: And the “Tolerability and safety findings” value (PPF cohort)?
Answer: well-tolerated, demonstrated no unexpected safety findings

Question: And the “Low BP thresholds (events)” value (PPF, 30 mg)?
Answer: 30%

Question: What about the “Asymptomatic blood pressure reduction (prespecified criteria)” value (PPF, 30 mg BID (n = 40)) of the same compound?
Answer: 9 (22.5) no. (%)

Question: And the COVID-19 (PPF, 30 mg BID (n = 40))?
Answer: 6 (15.0) no. (%)

Question: What about the Cough (PPF, 30 mg BID (n = 40)) of the same compound?
Answer: 3 (7.5) no. (%)

Question: What about the “Deaths due to TEAEs” value (PPF, 30 mg BID (n = 40)) of the same compound?
Answer: 0 no. (%)

Question: And the Diarrhea (PPF, 30 mg BID (n = 40))?
Answer: 6 (15.0) no. (%)

Question: What about the “Discontinuations due to TEAEs” value (PPF, 30 mg BID (n = 40)) of the same compound?
Answer: 1 no. (%) and 1 (2.5) no. (%)

Question: And the Dizziness (PPF, 30 mg BID (n = 40))?
Answer: 0 no. (%)

Question: What about the Dose reductions (PPF, 30 mg BID (n = 40)) of the same compound?
Answer: 6 (15.0) no. (%)

Question: What about the Dyspnea (PPF, 30 mg BID (n = 40)) of the same compound?
Answer: 2 (5.0) no. (%)

Question: And the Hypertension (PPF, 30 mg BID (n = 40))?
Answer: 0 no. (%)

Question: What about the Hypotension (PPF, 30 mg BID (n = 40)) of the same compound?
Answer: 4 (10.0) no. (%)

Question: What about the Nausea (PPF, 30 mg BID (n = 40)) of the same compound?
Answer: 4 (10.0) no. (%)

Question: What about the “Orthostatic hypotension (TEAE)” value (PPF, 30 mg BID (n = 40)) of the same compound?
Answer: 2 (5.0) no. (%)

Question: And the “Orthostatic hypotension within asymptomatic blood pressure reduction” value (PPF, 30 mg BID (n = 40))?
Answer: 6 (15.0) no. (%)

Question: And the “Orthostatic hypotension within symptomatic blood pressure reduction” value (PPF, 30 mg BID (n = 40))?
Answer: 1 (2.5) no. (%)

Question: What about the Rash (PPF, 30 mg BID (n = 40)) of the same compound?
Answer: 3 (7.5) no. (%)

Question: And the “Symptomatic blood pressure reduction (prespecified criteria)” value (PPF, 30 mg BID (n = 40))?
Answer: 2 (5.0) no. (%)

Question: What about the Vomiting (PPF, 30 mg BID (n = 40)) of the same compound?
Answer: 3 (7.5) no. (%)

Question: And the “≥1 TEAE” value (PPF, 30 mg BID (n = 40))?
Answer: 33 (82.5) no. (%)

Question: What about the “≥1 TEAE related to study drug” value (PPF, 30 mg BID (n = 40)) of the same compound?
Answer: 7 (17.5) no. (%)

Question: And the “≥1 TESAE” value (PPF, 30 mg BID (n = 40))?
Answer: 4 (10.0) no. (%)

Question: What about the Treatment discontinuations (PPF, 30 mg BID) of the same compound?
Answer: 7.5%

Question: What about the “Nadir postdose reduction from baseline in mean seated systolic blood pressure” value (PPF, 30 mg) of the same compound?
Answer: −10.7 mmHg

Question: What about the “Asymptomatic blood pressure reduction (prespecified criteria)” value (PPF, 60 mg BID (n = 42)) of the same compound?
Answer: 13 (31.0) no. (%)

Question: What about the COVID-19 (PPF, 60 mg BID (n = 42)) of the same compound?
Answer: 6 (14.3) no. (%)

Question: What about the Cough (PPF, 60 mg BID (n = 42)) of the same compound?
Answer: 5 (11.9) no. (%)

Question: What about the “Deaths due to TEAEs” value (PPF, 60 mg BID (n = 42)) of the same compound?
Answer: 0 no. (%)

Question: What about the Diarrhea (PPF, 60 mg BID (n = 42)) of the same compound?
Answer: 3 (7.1) no. (%)

Question: And the “Discontinuations due to TEAEs” value (PPF, 60 mg BID (n = 42))?
Answer: 0 no. (%)

Question: And the Dizziness (PPF, 60 mg BID (n = 42))?
Answer: 4 (9.5) no. (%)

Question: What about the Dose reductions (PPF, 60 mg BID (n = 42)) of the same compound?
Answer: 5 (11.9) no. (%)

Question: And the Dyspnea (PPF, 60 mg BID (n = 42))?
Answer: 0 no. (%)

Question: And the Hypertension (PPF, 60 mg BID (n = 42))?
Answer: 1 (2.4) no. (%)

Question: What about the Hypotension (PPF, 60 mg BID (n = 42)) of the same compound?
Answer: 3 (7.1) no. (%)

Question: And the Nausea (PPF, 60 mg BID (n = 42))?
Answer: 1 (2.4) no. (%)

Question: And the “Orthostatic hypotension (TEAE)” value (PPF, 60 mg BID (n = 42))?
Answer: 4 (9.5) no. (%)

Question: What about the “Orthostatic hypotension within asymptomatic blood pressure reduction” value (PPF, 60 mg BID (n = 42)) of the same compound?
Answer: 11 (26.2) no. (%)

Question: And the “Orthostatic hypotension within symptomatic blood pressure reduction” value (PPF, 60 mg BID (n = 42))?
Answer: 4 (9.5) no. (%)

Question: What about the Rash (PPF, 60 mg BID (n = 42)) of the same compound?
Answer: 0 no. (%)

Question: What about the “Symptomatic blood pressure reduction (prespecified criteria)” value (PPF, 60 mg BID (n = 42)) of the same compound?
Answer: 6 (14.3) no. (%)

Question: And the Vomiting (PPF, 60 mg BID (n = 42))?
Answer: 0 no. (%)

Question: And the “≥1 TEAE” value (PPF, 60 mg BID (n = 42))?
Answer: 28 (66.7) no. (%)

Question: And the “≥1 TEAE related to study drug” value (PPF, 60 mg BID (n = 42))?
Answer: 11 (26.2) no. (%)

Question: What about the “≥1 TESAE” value (PPF, 60 mg BID (n = 42)) of the same compound?
Answer: 5 (11.9) no. (%)

Question: What about the Treatment discontinuations (PPF, 60 mg BID) of the same compound?
Answer: 4.8%

Question: And the “Orthostatic hypotension (asymptomatic and symptomatic) versus other groups” value (PPF, 60 mg group)?
Answer: higher in the 60 mg group than for other groups

Question: And the “Nadir postdose reduction from baseline in mean seated systolic blood pressure” value (PPF, 60 mg)?
Answer: −12.7 mmHg
